Reference: ChEMBL document CHEMBL1131351, “Nonsteroidal progesterone receptor antagonists based on a conformationally-restricted subseries of 6-aryl-1,2-dihydro-2,2,4-trimethylquinolines” (Bioorg Med Chem Lett, 1998)

Key:
Progesterone receptor [1] = target: T1, Progesterone receptor (Homo sapiens, UniProt P06401); experiment: Binding affinity against human progesterone receptor-A (hPR-A)
T1 sequence (P06401 whole entry): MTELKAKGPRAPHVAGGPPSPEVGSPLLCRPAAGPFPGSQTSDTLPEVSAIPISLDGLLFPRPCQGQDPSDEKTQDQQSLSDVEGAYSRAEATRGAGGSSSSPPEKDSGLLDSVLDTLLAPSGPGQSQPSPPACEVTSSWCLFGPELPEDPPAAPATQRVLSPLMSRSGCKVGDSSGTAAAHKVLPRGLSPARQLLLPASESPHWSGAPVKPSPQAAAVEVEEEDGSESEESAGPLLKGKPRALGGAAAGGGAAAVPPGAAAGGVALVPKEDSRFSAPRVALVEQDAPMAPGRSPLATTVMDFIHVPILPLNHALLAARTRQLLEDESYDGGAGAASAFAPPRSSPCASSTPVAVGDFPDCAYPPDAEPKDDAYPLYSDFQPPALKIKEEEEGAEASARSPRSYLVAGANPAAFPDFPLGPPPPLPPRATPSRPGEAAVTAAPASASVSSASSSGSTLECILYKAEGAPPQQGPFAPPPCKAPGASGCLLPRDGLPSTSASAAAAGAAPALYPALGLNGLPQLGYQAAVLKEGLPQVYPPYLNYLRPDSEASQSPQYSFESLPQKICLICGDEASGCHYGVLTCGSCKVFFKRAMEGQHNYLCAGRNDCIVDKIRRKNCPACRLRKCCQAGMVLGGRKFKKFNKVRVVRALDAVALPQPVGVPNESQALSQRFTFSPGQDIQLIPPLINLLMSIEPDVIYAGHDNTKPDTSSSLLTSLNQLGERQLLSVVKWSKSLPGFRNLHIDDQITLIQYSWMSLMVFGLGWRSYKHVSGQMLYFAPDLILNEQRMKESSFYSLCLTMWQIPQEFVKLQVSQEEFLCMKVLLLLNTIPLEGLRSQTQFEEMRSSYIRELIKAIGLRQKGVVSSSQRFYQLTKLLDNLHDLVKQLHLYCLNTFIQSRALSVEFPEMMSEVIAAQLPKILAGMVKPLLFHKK

Progesterone receptor [2] = target: T1, Progesterone receptor; experiment: Antagonist activity against human progesterone receptor B (hPR-B) in co-transfected CV-1 cells; format: functional, cell-based
Progesterone receptor [3] = target: T1, Progesterone receptor; experiment: Agonistic activity against human progesterone receptor B (hPR-B) in co-transfected CV-1 cells; format: functional, cell-based

CC1CC(C)(C)Nc2cc3c(cc21)-c1ccccc1C3 (configuration not stated)
Ki (Progesterone receptor [1]): 87 nM | IC50 (Progesterone receptor [2]): 424 nM

CC1=CC(C)(C)Nc2ccc3c(c21)Cc1cc(Br)ccc1-3
Ki (Progesterone receptor [1]): 200 nM | IC50 (Progesterone receptor [2]): 2330 nM

CC1=CC(C)(C)Nc2cc3c(cc21)-c1ccc(Cl)cc1C3
Ki (Progesterone receptor [1]): 29 nM | IC50 (Progesterone receptor [2]): 248 nM

CC1=CC(C)(C)Nc2cc(F)c3c(c21)C(O)c1cc(F)ccc1-3 (configuration not stated)
Ki (Progesterone receptor [1]): 2580 nM | IC50 (Progesterone receptor [2]): 10000 nM

CC1=CC(C)(C)Nc2ccc3c(oc4ccccc43)c21
Ki (Progesterone receptor [1]): 77 nM | IC50 (Progesterone receptor [2]): 1140 nM

CC1=CC(C)(C)Nc2cc3c(c(F)c21)-c1ccc(F)cc1C3
Ki (Progesterone receptor [1]): 1.5 nM | EC50 (Progesterone receptor [3]): 650 nM

CC1=CC(C)(C)Nc2cc3c(cc21)-c1ccc(F)cc1C3O (configuration not stated)
Ki (Progesterone receptor [1]): 101 nM | IC50 (Progesterone receptor [2]): 122 nM

CC1=CC(C)(C)Nc2cc3c(cc21)-c1ccccc1C3O (configuration not stated)
Ki (Progesterone receptor [1]): 483 nM | IC50 (Progesterone receptor [2]): 609 nM

CC1=CC(C)(C)Nc2cc3c(c(F)c21)-c1ccc(F)cc1C3(C)O (configuration not stated)
Ki (Progesterone receptor [1]): > 10000 nM | IC50 (Progesterone receptor [2]): 10000 nM

CC1=CC(C)(C)Nc2cc3c(cc21)-c1ccc(Br)cc1C3C (configuration not stated)
Ki (Progesterone receptor [1]): > 10000 nM | IC50 (Progesterone receptor [2]): 10000 nM

CC1=CC(C)(C)Nc2cc3c(cc21)-c1cccc(F)c1C3
Ki (Progesterone receptor [1]): 2.3 nM | IC50 (Progesterone receptor [2]): 1770 nM

CC1=CC(C)(C)Nc2cc3oc4ccccc4c3cc21
Ki (Progesterone receptor [1]): 184 nM | IC50 (Progesterone receptor [2]): 1850 nM

CC1=CC(C)(C)Nc2cc3c(cc21)-c1ccc(Br)cc1C3O (configuration not stated)
Ki (Progesterone receptor [1]): 1860 nM | IC50 (Progesterone receptor [2]): 3440 nM

CC1=CC(C)(C)Nc2cc3c(c(F)c21)-c1ccc(F)cc1C3=O
Ki (Progesterone receptor [1]): > 10000 nM | IC50 (Progesterone receptor [2]): 365 nM

CC1=CC(C)(C)Nc2cc3c(cc21)-c1cccc(CO)c1C3
Ki (Progesterone receptor [1]): 12.4 nM | IC50 (Progesterone receptor [2]): 10000 nM

CC1=CC(C)(C)Nc2cc(F)c3c(c21)Cc1cc(F)ccc1-3
Ki (Progesterone receptor [1]): 20.9 nM | IC50 (Progesterone receptor [2]): 5680 nM

CC1=CC(C)(C)Nc2ccc3c(c21)Cc1cc([N+](=O)[O-])ccc1-3
Ki (Progesterone receptor [1]): 57 nM | IC50 (Progesterone receptor [2]): 1670 nM

CC1=CC(C)(C)Nc2ccc3c(c21)Cc1cc([N+](=O)[O-])c(F)cc1-3
Ki (Progesterone receptor [1]): 97 nM | IC50 (Progesterone receptor [2]): 3330 nM

CC1=CC(C)(C)Nc2ccc3c(c21)Cc1c(F)cccc1-3
Ki (Progesterone receptor [1]): 15.5 nM | IC50 (Progesterone receptor [2]): 496 nM

CC1=CC(C)(C)Nc2cc3c(cc21)-c1c(F)cccc1C3O (configuration not stated)
Ki (Progesterone receptor [1]): 449 nM | IC50 (Progesterone receptor [2]): 99 nM

CC1=CC(C)(C)Nc2cc3c(cc21)-c1ccc([N+](=O)[O-])cc1C3
Ki (Progesterone receptor [1]): 3.6 nM | IC50 (Progesterone receptor [2]): 90 nM

CC1=CC(C)(C)Nc2ccc3c(c21)Cc1ccccc1-3
Ki (Progesterone receptor [1]): 13 nM | IC50 (Progesterone receptor [2]): 549 nM

CC1=CC(C)(C)Nc2cc3c(cc21)-c1ccc(Br)cc1C3Cc1ccccc1 (configuration not stated)
Ki (Progesterone receptor [1]): > 10000 nM | IC50 (Progesterone receptor [2]): 10000 nM

CC1=CC(C)(C)Nc2ccc3c([nH]c4ccccc43)c21
Ki (Progesterone receptor [1]): > 1000 nM | IC50 (Progesterone receptor [2]): 662 nM

CC1=CC(C)(C)Nc2cc3c(cc21)-c1c(F)cc(F)cc1C3O (configuration not stated)
Ki (Progesterone receptor [1]): 25.5 nM | IC50 (Progesterone receptor [2]): 80 nM

CC1=CC(C)(C)Nc2cc3c(cc21)-c1ccc(F)cc1C3
Ki (Progesterone receptor [1]): 3.5 nM

CC1=CC(C)(C)Nc2cc3c(c(F)c21)-c1ccc(F)cc1C3OC(=O)C(F)(F)F (configuration not stated)
Ki (Progesterone receptor [1]): 62.5 nM | IC50 (Progesterone receptor [2]): 46 nM

CC1=CC(C)(C)Nc2cc3c(cc21)-c1cc(F)c([N+](=O)[O-])cc1C3
Ki (Progesterone receptor [1]): 1.9 nM | IC50 (Progesterone receptor [2]): 100 nM

CC1=CC(C)(C)Nc2cc3c(c(Cl)c21)-c1ccccc1C3O (configuration not stated)
Ki (Progesterone receptor [1]): 53.1 nM | IC50 (Progesterone receptor [2]): 163 nM

CCCCn1c2ccccc2c2ccc3c(c21)C(C)=CC(C)(C)N3
Ki (Progesterone receptor [1]): 77 nM | IC50 (Progesterone receptor [2]): 416 nM

CC1=CC(C)(C)Nc2cc3c(cc21)-c1ccccc1C3=O
Ki (Progesterone receptor [1]): 3550 nM | IC50 (Progesterone receptor [2]): 353 nM

CC1=CC(C)(C)Nc2cc3c(cc21)-c1ccccc1C3
Ki (Progesterone receptor [1]): 14 nM | IC50 (Progesterone receptor [2]): 220 nM

CC(=O)c1ccc2c(c1)Cc1cc3c(cc1-2)C(C)=CC(C)(C)N3
Ki (Progesterone receptor [1]): 176 nM | IC50 (Progesterone receptor [2]): 164 nM

CC1=CC(C)(C)Nc2cc3c(cc21)-c1ccc(Br)cc1C3
Ki (Progesterone receptor [1]): 24 nM | IC50 (Progesterone receptor [2]): 434 nM

CC1=CC(C)(C)Nc2cc3c(cc21)-c1c(F)cccc1C3=O
Ki (Progesterone receptor [1]): 29.1 nM | IC50 (Progesterone receptor [2]): 158 nM

CC1=CC(C)(C)Nc2cc3[nH]c4ccccc4c3cc21
Ki (Progesterone receptor [1]): 113 nM | IC50 (Progesterone receptor [2]): 59 nM

CC1=CC(C)(C)Nc2cc3c(cc21)-c1cc(F)cc(F)c1C3O (configuration not stated)
Ki (Progesterone receptor [1]): 202 nM | IC50 (Progesterone receptor [2]): 74 nM

CCn1c2ccccc2c2ccc3c(c21)C(C)=CC(C)(C)N3
Ki (Progesterone receptor [1]): 169 nM | IC50 (Progesterone receptor [2]): 284 nM

CC1=CC(C)(C)Nc2cc3c(cc21)-c1c(F)ccc(F)c1C3
Ki (Progesterone receptor [1]): 3.1 nM | IC50 (Progesterone receptor [2]): 146 nM
